Source: patent US7183369B1, “Injectible bodily prosthetics employing methacrylic copolymer gels” (Iowa State University Research Foundation, Inc., priority 2003, dated 2007)

System: NIH/3T3 mouse fibroblasts
Test: Elution cytotoxicity test
Format: cell-based
Protocol: Elution tests were performed on one sample of the pentablock material to assess the cytotoxic properties of the pentablock copolymers. Approximately 30 mg of the polymers to be tested were dissolved in 100 ml of low-glucose Dulbecco's modified eagle medium (DMEM, Sigma) with 10% fetal bovine serum (FBS, Sigma), 10 μg/ml insulin (Sigma), 10 units/ml penicillin/streptomycin (Sigma), and 100 μg/ml L-ascorbic acid (Sigma). This solution was diluted to achieve the desired polymer concentration for all tests.
NIH/3T3 mouse fibroblasts were grown in polystyrene flasks until reaching confluence at 150 cells/mm. The growth media was removed from the flasks and replaced with one of the following: DMEM (negative control), DMEM with phenol (positive control), DMEM with the pentablock material. The concentrations of the pentablock material and phenol were 3 mg/L, 0.3 mg/L and 0.03 mg/L.
After 24 hours of incubation in a humidified incubator with 5% CO2 at 37° C. the samples were removed and the media was replaced with Karnovsky's fixative (2.5% glutaraldehyde, 2.0% paraformaldehyde, 0.1M sodium cacodylate) for 12 hours. The samples were then stained with a 20% crystal violet dye (CVD) solution in ethanol for 6 hours followed by dehydration with ethanol. […]

PDEAEM-b-PEO-b-PPO-b-PEO-b-PDEAEM [pentablock copolymer]
cell adhesion to polystyrene substrate and confluence after test period: good adhesion to the polystyrene cell culture substrate and the cells remained confluent
